From patent US10450549B2, “Aryloxyphenoxypropionate tolerance in turfrgass species and use of AAD1 as a selectable marker” (Dow AgroSciences, LLC, priority 2004, dated 2019)
Read-outs that look alike come from different tables or passages of the source.

Tests used:
[1] = tested on: Arabidopsis thaliana var. Columbia; assay: Arabidopsis plate test bioassay for herbicide degradation; format: in vivo; conditions: for IC50: 168 h
[2] = tested on: PAT/Cry1F-transformed Arabidopsis; assay: T1 Arabidopsis spray test, % visual injury 2 WAT: PAT/Cry1F transformed control; format: in vivo, Arabidopsis thaliana; conditions: PAT/Cry1F
Source text: (§1) Random individual T1 plants selected for glufosinate resistance above were confirmed for expression of the PAT protein using a PAT ELISA kit (Part no. 7000045, Strategic Diagnostics, Inc., Newark, Del.) to non-destructively confirm fidelity of selection process (manufacturer's protocol). Plants were then randomly assigned to various rates of phenoxy herbicides (dichlorprop or 2,4-D). […] Elevated rates were applied in subsequent trials (50, 200, 800, or 3200 g ae/ha).
(§2) All auxin herbicide applications were made using the DeVilbiss sprayer as described above to apply 703 L/ha spray volume (0.4 ml solution/3-inch pot) or applied by track sprayer in a 187 L/ha spray volume. […] Dichlorprop used was technical grade (Sigma, St. Louis, Mo.) dissolved in DMSO and diluted in water (<1% DMSO final concentration). As herbicide rates increased beyond 800 g ae/ha, the pH of the spray solution became exceedingly acidic, burning the leaves of young, tender Arabidopsis plants and complicating evaluation of the primary effects of the herbicides. It became standard practice to apply these high rates of phenoxy herbicides in 200 mM Tris buffer (pH 9.0) to a final pH of ˜7-8.
(§3) Although Arabidopsis, being a dicot, is not an optimal system for testing ACCase-inhibiting AOPP grass herbicides, AAD1 (v3)-transformed T1 plants were subjected to elevated rates (400-1600 g ae/ha) of RS-haloxyfop acid (internally synthesized) that do cause growth abnormalities and death of wildtype Arabidopsis using the DeVilbiss sprayer as described above. Injury ratings were taken 7 and 14 days after treatment. Likewise, T1 individuals were treated with the pyridyloxyacetate auxin herbicide, fluroxypyr.
(§4) Table 16. […] Response is presented in terms of % visual injury 2 WAT. […] Since each T1 is an independent transformation event, one can expect significant variation of individual T1 responses within a given rate. An arithmetic mean and standard deviation is presented for each treatment. The range in individual response is also indicated in the last column for each rate and transformation. PAT/Cry1F-transformed Arabidopsis served as an auxin-sensitive transformed control. Wildtype Arabidopsis is untransformed.
(§5) Table 17. T1 Arabidopsis response to a range of dichlroprop rates applied postemergence. Response is presented in terms of % visual injury 2 WAT. […] Since each T1 is an independent transformation event, one can expect significant variation of individual T1 responses within a given rate. An arithmetic mean and standard deviation is presented for each treatment. The range in individual response is also indicated in the last column for each rate and transformation. PAT/Cry1F-transformed Arabidopsis served as an auxin-sensitive transformed control. Wildtype Arabidopsis is untransformed.
as §5, with “18.” for “17.”, “haloxyfop” for “dichlroprop”, “postemergence at artificially high rates attempting to show tolerance of the dicot Arabidopsis to the graminicide.” for “postemergence.”

[3] = molecular target: T1, AAD1 (v1) (Sphingobium herbicidovorans, UniProt Q8KSC8); assay: Colorimetric phenol detection assay of AAD1 (v1) activity (purified enzyme or E. coli extract); format: biochemical; conditions: 15 min
T1 construct: made in house; host or cells: E. coli BL-21 Star (DE3), plasmid pDAB3203
T1 sequence (Q8KSC8 whole entry): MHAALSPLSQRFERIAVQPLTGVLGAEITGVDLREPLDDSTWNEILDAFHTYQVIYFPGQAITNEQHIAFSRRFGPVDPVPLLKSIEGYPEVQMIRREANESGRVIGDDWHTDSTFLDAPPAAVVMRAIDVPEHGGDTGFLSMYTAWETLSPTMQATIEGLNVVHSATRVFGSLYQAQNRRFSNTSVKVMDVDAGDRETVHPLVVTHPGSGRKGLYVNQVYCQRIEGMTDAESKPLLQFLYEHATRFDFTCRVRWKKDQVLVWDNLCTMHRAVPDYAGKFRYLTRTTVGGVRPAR

[4] = tested on: Wildtype Arabidopsis; assay: T1 Arabidopsis spray test, % visual injury 2 WAT: wildtype control; format: in vivo, Arabidopsis thaliana; conditions: for % Injury Ave / % Injury Range / individuals with 20-40% injury / individuals with <20% injury / individuals with >40% injury: Wildtype, 2 WAT
Source text: as §1, §2, §3, §4, §5
as §5, with “18.” for “17.”, “haloxyfop” for “dichlroprop”, “postemergence at artificially high rates attempting to show tolerance of the dicot Arabidopsis to the graminicide.” for “postemergence.”

## CC(Oc1ccc(Cl)cc1Cl)C(=O)O (racemic) [(R,S)-dichlorprop, 2,4-dichlorophenoxypropionic acid]
[1]; Arabidopsis thaliana, AAD1 (v1)-expressing lysate, nominal concentration, read-out: GR50, Chemical + AAD1 v1
  IC50: 1000 nM
[1]; Escherichia coli, in Arabidopsis thaliana, cell lysate of E. coli pET vector without gene insert, read-out: GR50, Chemical + Blank Vector
  IC50: 30 nM
[1]; enzyme-expressing lysate vs blank vector, ≥ 2 = threshold for activity loss
  GR50 ratio: 33
[1]; unpurified recombinant AAD1 (v1) extract
  herbicidal activity after AAD1 (v1) treatment, Arabidopsis plate assay: effectively degraded
[2]; 12.5 g ae/ha
  % Injury Ave: 38.1%
  % Injury Range: 20-95%
  individuals with 20-40% injury: 6
  individuals with <20% injury: 0
  individuals with >40% injury: 2
[2]; 50 g ae/ha
  % Injury Ave: 80.0%
  % Injury Range: 50-100%
  individuals with 20-40% injury: 0
  individuals with <20% injury: 0
  individuals with >40% injury: 8
[2]; 200 g ae/ha
  % Injury Ave: 98.3%
  % Injury Range: 95-100%
  individuals with 20-40% injury: 0
  individuals with <20% injury: 0
  individuals with >40% injury: 8
[2]; 800 g ae/ha
  % Injury Ave: 100.0%
  % Injury Range: 100%
  individuals with 20-40% injury: 0
  individuals with <20% injury: 0
  individuals with >40% injury: 8
[3]; 0.5 mM substrate, 4 μl extract
  activity of AAD1 (v1) E. coli extract on substrate: cleaved
[3]; Table 3, substrate 1 mM, 1 μg purified AAD1 (v1) per 0.16 ml assay
  A510, AAD1: 0.566
[3]; Table 3, substrate 1 mM, 10 μg purified AAD1 (v1) per 0.16 ml assay
  A510, AAD1 (10x): 2.594
[4]; 12.5 g ae/ha
  % Injury Ave: 13.3%
  % Injury Range: 10-15%
  individuals with 20-40% injury: 0
  individuals with <20% injury: 3
  individuals with >40% injury: 0
[4]; 50 g ae/ha
  % Injury Ave: 53.3%
  % Injury Range: 50-60%
  individuals with 20-40% injury: 0
  individuals with <20% injury: 0
  individuals with >40% injury: 3
[4]; 200 g ae/ha
  % Injury Ave: 95.0%
  % Injury Range: 90-100%
  individuals with 20-40% injury: 0
  individuals with <20% injury: 0
  individuals with >40% injury: 3
[4]; 800 g ae/ha
  % Injury Ave: 100.0%
  % Injury Range: 100%
  individuals with 20-40% injury: 0
  individuals with <20% injury: 0
  individuals with >40% injury: 3
[4]; postemergence spray
  GR99 for Arabidopsis: ~200 g ae/ha
